Reference: the supplement of paper PMC11451515

Columns and labels:
Conditions in all cases: 48 h
[1] = test system: NOMO1; assay: AUC of viability dose-response curve (% viability x log10 dose units); higher = less sensitive
Outline: (§1)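 Leukemia cells adapted to each medium were seeded at 500 or 1000 cells/well in 1536-well plates and dosed with library compounds in DMSO at 11 threefold doses from 47 μM to 0.79 nM for 48 h at 37°C. CellTiter-Glo One luminescence was normalised per plate to DMSO and cell-free wells, then fitted with a four-parameter log-logistic model over log10 doses. Area under the curve was taken from this fit by the trapezoidal rule, with curves above full viability scaled and curves failing quality control removed.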

[2] = test system: P12-Ichikawa; assay: as above
Outline: as §1

[3] = test system: SEM cells; assay: as above
Outline: as §1

[4] = test system: NOMO1; assay: cell viability relative to DMSO control; higher = less cytotoxic
Outline: (§2)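 Before seeding, each leukemia line was adapted for at least four passages in each medium. NOMO1 or SEM cells (500 cells/well) and P12-Ichikawa cells (1000 cells/well) went into 1536-well plates at 5 μl, then received library compounds in DMSO by pin dosing across 11 threefold concentrations, 47 μM to 0.79 nM. Readout was CellTiter-Glo One luminescence after 48 h at 37°C, and viability is given as a per-plate percentage of DMSO wells, with cell-free wells as background.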

[5] = test system: P12-Ichikawa; assay: as above
Outline: as §2

[6] = test system: SEM cells; assay: as above
Outline: as §2

COc1ccc(-c2ccc3cc(C(=O)O)ccc3c2)cc1C12CC3CC(CC(C3)C1)C2
AUC of viability dose-response curve
Conditions | [1] | [2] | [3]
HPLM + 10% dialyzed FBS | 436 | 465 | 459
RPMI 5 mM glucose + 10% FBS | 441 | 447 | 468
RPMI 5 mM glucose + 10% dialyzed FBS | 387 | 458 | 459

CN(C)CCCN\C1=C\2C(=O)N(C)C(=O)\N=C2N(C)C3=C1C=CC=C3
AUC of viability dose-response curve
Conditions | [1] | [2] | [3]
HPLM + 10% dialyzed FBS | 446 | 442 | 396
RPMI 5 mM glucose + 10% FBS | 446 | 421 | 394
RPMI 5 mM glucose + 10% dialyzed FBS | 432 | 429 | 397

CCOC(=O)[C@H](CCc1ccccc1)N[C@H]1CS[C@H](c2cccs2)CN(CC(=O)O)C1=O.Cl
AUC of viability dose-response curve
Conditions | [1] | [2] | [3]
HPLM + 10% dialyzed FBS | 384 | 400 | 461
RPMI 5 mM glucose + 10% FBS | 408 | 401 | 437
RPMI 5 mM glucose + 10% dialyzed FBS | 395 | 421 | 468

NC(=O)c1noc([C@H](CCCC2CCCCC2)CC(=O)NO)n1
AUC of viability dose-response curve
Conditions | [1] | [2] | [3]
HPLM + 10% dialyzed FBS | 431 | 441 | 428
RPMI 5 mM glucose + 10% FBS | 424 | 422 | 414
RPMI 5 mM glucose + 10% dialyzed FBS | 441 | 421 | 429

Oc1ccc(-c2ccc(-c3cc(Nc4cccc(CNC5CC5)c4)[nH]n3)cc2)c(O)c1
cell viability [%]
Conditions | [4] | [5] | [6]
HPLM + 10% dialyzed FBS, 0.000781 µM | 93.9 | 104 | 82.4
HPLM + 10% dialyzed FBS, 0.00234 µM | 104 | 103 | 100
HPLM + 10% dialyzed FBS, 0.00702 µM | 108 | 112 | 93.7
HPLM + 10% dialyzed FBS, 0.0211 µM | 116 | 104 | 93.7
HPLM + 10% dialyzed FBS, 0.0632 µM | 127 | 96.1 | 70.7
HPLM + 10% dialyzed FBS, 0.19 µM | 116 | 112 | 103
HPLM + 10% dialyzed FBS, 0.569 µM | 102 | 104 | 91.1
HPLM + 10% dialyzed FBS, 1.71 µM | 93.4 | 92.3 | 46.7
HPLM + 10% dialyzed FBS, 5.12 µM | 41.4 | 32.2 | 25.7
HPLM + 10% dialyzed FBS, 15.4 µM | 40 | 38 | 9.24
HPLM + 10% dialyzed FBS, 46.1 µM | 60.6 | 64.1 | 6.68
RPMI 5 mM glucose + 10% FBS, 0.000781 µM | 104 | 99.4 | 97.8
RPMI 5 mM glucose + 10% FBS, 0.00234 µM | 99 | 98.1 | 106
RPMI 5 mM glucose + 10% FBS, 0.00702 µM | 103 | 115 | 95
RPMI 5 mM glucose + 10% FBS, 0.0211 µM | 97.4 | 114 | 101
RPMI 5 mM glucose + 10% FBS, 0.0632 µM | 115 | 98.5 | 72.6
RPMI 5 mM glucose + 10% FBS, 0.19 µM | 109 | 116 | 89.7
RPMI 5 mM glucose + 10% FBS, 0.569 µM | 114 | 108 | 110
RPMI 5 mM glucose + 10% FBS, 1.71 µM | 96.7 | 89 | 94.5
RPMI 5 mM glucose + 10% FBS, 5.12 µM | 49.5 | 23.2 | 45.7
RPMI 5 mM glucose + 10% FBS, 15.4 µM | 27.8 | 13.5 | 27.4
RPMI 5 mM glucose + 10% FBS, 46.1 µM | 30.8 | 23.4 | 4.97
RPMI 5 mM glucose + 10% dialyzed FBS, 0.000781 µM | 99.3 | 101 | 89
RPMI 5 mM glucose + 10% dialyzed FBS, 0.00234 µM | 94.4 | 114 | 96.9
RPMI 5 mM glucose + 10% dialyzed FBS, 0.00702 µM | 106 | 105 | 100
RPMI 5 mM glucose + 10% dialyzed FBS, 0.0211 µM | 109 | 125 | 87.9
RPMI 5 mM glucose + 10% dialyzed FBS, 0.0632 µM | 107 | 111 | 84.1
RPMI 5 mM glucose + 10% dialyzed FBS, 0.19 µM | 102 | 112 | 99.6
RPMI 5 mM glucose + 10% dialyzed FBS, 0.569 µM | 119 | 104 | 100
RPMI 5 mM glucose + 10% dialyzed FBS, 1.71 µM | 107 | 101 | 84.8
RPMI 5 mM glucose + 10% dialyzed FBS, 5.12 µM | 71.1 | 58.8 | 60.2
RPMI 5 mM glucose + 10% dialyzed FBS, 15.4 µM | 26 | 32.9 | 22.8
RPMI 5 mM glucose + 10% dialyzed FBS, 46.1 µM | 31.1 | 43.2 | 9.47

AUC of viability dose-response curve
Conditions | [1] | [2] | [3]
HPLM + 10% dialyzed FBS | 402 | 403 | 321
RPMI 5 mM glucose + 10% FBS | 396 | 372 | 376
RPMI 5 mM glucose + 10% dialyzed FBS | 409 | 404 | 374

C[C@@H](N)C1CC[C@@H](CC1)C(=O)NC2=CC=NC=C2 (some centres not stated)
cell viability [%]
Conditions | [4] | [5] | [6]
HPLM + 10% dialyzed FBS, 0.000781 µM | 98.8 | 109 | 91.8
HPLM + 10% dialyzed FBS, 0.00234 µM | 114 | 112 | 117
HPLM + 10% dialyzed FBS, 0.00702 µM | 117 | 111 | 107
HPLM + 10% dialyzed FBS, 0.0211 µM | 126 | 115 | 108
HPLM + 10% dialyzed FBS, 0.0632 µM | 123 | 112 | 103
HPLM + 10% dialyzed FBS, 0.19 µM | 136 | 113 | 106
HPLM + 10% dialyzed FBS, 0.569 µM | 128 | 123 | 129
HPLM + 10% dialyzed FBS, 1.71 µM | 132 | 116 | 129
HPLM + 10% dialyzed FBS, 5.12 µM | 119 | 125 | 119
HPLM + 10% dialyzed FBS, 15.4 µM | 113 | 116 | 122
HPLM + 10% dialyzed FBS, 46.1 µM | 100 | 104 | 120
RPMI 5 mM glucose + 10% FBS, 0.000781 µM | 114 | 117 | 94
RPMI 5 mM glucose + 10% FBS, 0.00234 µM | 97.3 | 109 | 99.3
RPMI 5 mM glucose + 10% FBS, 0.00702 µM | 114 | 115 | 99.8
RPMI 5 mM glucose + 10% FBS, 0.0211 µM | 106 | 125 | 90.3
RPMI 5 mM glucose + 10% FBS, 0.0632 µM | 101 | 118 | 103
RPMI 5 mM glucose + 10% FBS, 0.19 µM | 120 | 127 | 108
RPMI 5 mM glucose + 10% FBS, 0.569 µM | 122 | 121 | 112
RPMI 5 mM glucose + 10% FBS, 1.71 µM | 104 | 114 | 115
RPMI 5 mM glucose + 10% FBS, 5.12 µM | 123 | 118 | 104
RPMI 5 mM glucose + 10% FBS, 15.4 µM | 93.5 | 109 | 109
RPMI 5 mM glucose + 10% FBS, 46.1 µM | 93.1 | 112 | 113
RPMI 5 mM glucose + 10% dialyzed FBS, 0.000781 µM | 113 | 110 | 93.7
RPMI 5 mM glucose + 10% dialyzed FBS, 0.00234 µM | 105 | 121 | 107
RPMI 5 mM glucose + 10% dialyzed FBS, 0.00702 µM | 110 | 119 | 111
RPMI 5 mM glucose + 10% dialyzed FBS, 0.0211 µM | 91 | 122 | 121
RPMI 5 mM glucose + 10% dialyzed FBS, 0.0632 µM | 105 | 121 | 117
RPMI 5 mM glucose + 10% dialyzed FBS, 0.19 µM | 116 | 130 | 114
RPMI 5 mM glucose + 10% dialyzed FBS, 0.569 µM | 115 | 124 | 131
RPMI 5 mM glucose + 10% dialyzed FBS, 1.71 µM | 113 | 134 | 120
RPMI 5 mM glucose + 10% dialyzed FBS, 5.12 µM | 113 | 120 | 114
RPMI 5 mM glucose + 10% dialyzed FBS, 15.4 µM | 94.1 | 121 | 116
RPMI 5 mM glucose + 10% dialyzed FBS, 46.1 µM | 90 | 118 | 114

AUC of viability dose-response curve
Conditions | [1] | [2] | [3]
HPLM + 10% dialyzed FBS | 472 | 469 | 438
RPMI 5 mM glucose + 10% FBS | 462 | 470 | 452
RPMI 5 mM glucose + 10% dialyzed FBS | 466 | 470 | 464
